Experimental data as given in paper PMC11662004 (Communications Chemistry, 2024).
Several values for one entry are separate records, joined by “and”; a condition that tells them apart may be missing. Equal values may be shown once. Read-outs that look alike come from different tables or passages of the source.

How the values were obtained:
TET2CDΔLCI = biological target: T1, TET2CDΔLCI (Homo sapiens, UniProt Q6N021); assay: AlphaScreen competition assay with biotinylated 5mC dsDNA; type: binding; conditions: 12.5 nM TET2CDΔLCI, 12.5 nM 5mC dsDNA
T1 construct: FLAG-[thrombin cleavage site]-SUMO (N); made in house; host or cells: E. coli
Protocol: (§1) AlphaScreen™ Histidine (Nickel Chelate) Detection Kit was used to evaluate displacement of […] (^5mC dsDNA)[33],[34]. Competitor DNA oligomers in assay buffer were manually dispensed onto 384-well ProxiPlates (5 μL) in a 2-fold dilution series. His6-tagged NgTet1 or TET2CDΔLCI in assay buffer was added (5 μL), and the mixture was pre-incubated with the competitor DNA at room temperature for 10 min. Cofactors and biotinylated ^5mC dsDNA in assay buffer were added (5 μL), and the mixture was further incubated at room temperature for 10 min. A mixture of AlphaScreen beads (1:62.5 dilution) in assay buffer was added (5 μL), and the full mixture was incubated at room temperature for 1 h. The final mixtures (20 μL) contained 100 nM NgTet1 (50 nM ^5mC dsDNA) or 12.5 nM TET2CDΔLCI (12.5 nM ^5mC dsDNA), 50 μM sodium L-ascorbate, 5 μM (NH4)2Fe(SO4)2, and 5 μM disodium NOG in assay buffer (50 mM HEPES [pH 7.3], 150 mM NaCl, 0.1% v/v BSA, 0.01% v/v Tween® 20). For the assay interference counter screen, His6-tagged TET protein and biotinylated ^5mC dsDNA were replaced with 1.6 nM biotinylated His6 peptide. Chemiluminescence was measured on a PHERAstar FS/FSX (BMG Labtech) equipped with an AlphaScreen 680 570 module. All AlphaScreen bead manipulations were performed under subdued lighting. Inhibition data was normalised to reactions containing no competitor and fitted using “log(inhibitor) vs. response - Variable slope (four parameters)” non-linear regression model on GraphPad Prism 5. […]
(§2) Fig. S5 TETs bind to DNA in a sequence- and modification-independent manner. A binding assay between a biotinylated 5mC dsDNA oligomer and His6-tagged TET was developed using AlphaScreen Histidine (Nickel Chelate) assay. […] Conditions: a 100 nM NgTet1 (50 nM 5mC dsDNA), b 12.5 nM TET2CDΔLCI (12.5 nM 5mC dsDNA), c 1.6 nM biotinylated His6 peptide. Each assay was supplemented with 50 μM sodium L-ascorbate, 5 μM (NH4)2Fe(SO4)2, and 5 μM disodium NOG. Data shown as the mean of three to four experimental replicates (n = 3–4; mean ± SD); tabulated data reported as the mean of two independent replicates (n = 2).

NgTet1 [1] = biological target: T2, NgTet1 (Naegleria gruberi, UniProt D2W6T1); assay: as above; type: binding; conditions: 100 nM NgTet1, 50 nM 5mC dsDNA
T2 construct: His6-tagged full-length Naegleria gruberi NgTet1 (321 a. a.) protein with a thrombin cleavage site; made in house; host or cells: E. coli BL21(DE3)
T2 sequence (D2W6T1 1-321): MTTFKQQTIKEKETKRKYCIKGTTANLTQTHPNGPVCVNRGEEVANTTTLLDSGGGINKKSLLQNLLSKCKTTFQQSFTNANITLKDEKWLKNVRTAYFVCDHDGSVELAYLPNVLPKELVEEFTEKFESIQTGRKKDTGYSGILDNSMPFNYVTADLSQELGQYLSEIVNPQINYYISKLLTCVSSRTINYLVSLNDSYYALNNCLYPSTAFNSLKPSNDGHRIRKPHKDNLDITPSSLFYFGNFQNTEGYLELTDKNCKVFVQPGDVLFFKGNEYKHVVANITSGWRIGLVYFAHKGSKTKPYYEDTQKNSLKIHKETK
Protocol: as §1, §2

NgTet1 [2] = biological target: T2, NgTet1; type: biochemical; conditions: for 2OG Concentration / Succinate Concentration: 20 μM 5HC DNA
Protocol: Double-stranded 12 bp DNA oligomers were added at a final concentration of 20 µM. […]
Double-stranded DNA oligomers were added at a final concentration of 20 µM. […]
All ^1H NMR spectra were recorded at 25 °C using D2O as a reference for internal deuterium lock on a Bruker Avance III 700 MHz equipped with an inverse TCI cryoprobe in 3 or 5 mm diameter tubes with a total sample volume of 160 or 565 μL, respectively. The water signal was reduced using Perfect Echo excitation sculpting suppression. Chemical shifts are reported in ppm relative to D2O (δH = 4.70 ppm).
Spectrometer settings were determined using a control sample containing all reaction components excluding enzyme. TET enzyme was added to an identical sample, and the resulting assay mixture was transferred to an NMR tube before deposition into the instrument. […] Spectrum recordings were carried out consecutively without delay. Data were processed using automated routines on MestReNova v14.2.0; signals of interest were integrated with absolute intensity scaling. ^1H NMR time courses reported in figures are representative results from two or three independent replicates.

## 5HC DNA: non-methylated DNA of the same sequence, 5'-ACC ACC GGT GGT-3', non-substrate (DNA ACCACCGGTGGT; DNA, backbone not given here)
TET2CDΔLCI
  IC50: 8.91 µM
TET2CDΔLCI; n = 2
  competition pIC50 TET2CDΔLCI: 5.05
NgTet1 [1]
  IC50: 57.5 µM
NgTet1 [1]; n = 2
  competition pIC50 NgTet1: 4.24
NgTet1 [2]; time 6.31667 min
  2OG Concentration: 88.5781 µM
  Succinate Concentration: 11.4219 µM
NgTet1 [2]; time 9.38333 min
  2OG Concentration: 79.2717 µM
  Succinate Concentration: 20.7283 µM
NgTet1 [2]; time 12.45 min
  2OG Concentration: 72.6874 µM
  Succinate Concentration: 27.3126 µM
NgTet1 [2]; time 15.5167 min
  2OG Concentration: 67.5286 µM
  Succinate Concentration: 32.4714 µM
NgTet1 [2]; time 18.6 min
  2OG Concentration: 63.1853 µM
  Succinate Concentration: 36.8147 µM
NgTet1 [2]; 20 µM DNA, 100 μM 2OG, 5 μM NgTet1
  V0 NgTet1: 1.30 µM/min
NgTet1 [2]; 2-OG 50 uM, 20 µM DNA
  2-OG turnover rate: 1.2756 µM/min and 1.3302 µM/min
NgTet1 [2]; 2-OG 100 uM, 20 µM DNA
  2-OG turnover rate: 2.0544 µM/min and 2.2614 µM/min
NgTet1 [2]; 2-OG 200 uM, 20 µM DNA
  2-OG turnover rate: 3.7602 µM/min and 3.5166 µM/min
NgTet1 [2]; 2-OG 400 uM, 20 µM DNA
  2-OG turnover rate: 4.4538 µM/min and 4.2732 µM/min
NgTet1 [2]; 2-OG 700 uM, 20 µM DNA
  2-OG turnover rate: 4.9836 µM/min and 5.0838 µM/min
NgTet1 [2]; 2-OG 1000 uM, 20 µM DNA
  2-OG turnover rate: 5.3268 µM/min and 5.3442 µM/min
NgTet1 [2]; 2-OG 2000 uM, 20 µM DNA
  2-OG turnover rate: 5.8116 µM/min and 5.7954 µM/min
NgTet1 [2]; 2-OG 4000 uM, 20 µM DNA
  2-OG turnover rate: 6.75 µM/min and 6.036 µM/min
NgTet1 [2]; n = 1, time (min) 5HC DNA 5.9, AT DNA 5.81667, 5mC DNA 5.78333
  succinate: 7.407 µM
NgTet1 [2]; n = 1, time (min) 5HC DNA 8.98333, AT DNA 8.9, 5mC DNA 8.86667
  succinate: 12.5672 µM
NgTet1 [2]; n = 1, time (min) 5HC DNA 12.0667, AT DNA 11.9833, 5mC DNA 11.95
  succinate: 16.4606 µM
NgTet1 [2]; n = 1, time (min) 5HC DNA 15.1333, AT DNA 15.0667, 5mC DNA 15.0333
  succinate: 19.1176 µM
NgTet1 [2]; n = 1, time (min) 5HC DNA 18.2167, AT DNA 18.1333, 5mC DNA 18.1167
  succinate: 21.6247 µM
NgTet1 [2]; n = 1, time (min) 5HC DNA 21.3667, AT DNA 21.2333, 5mC DNA 21.2
  succinate: 24.6175 µM
NgTet1 [2]; n = 1, time (min) 5HC DNA 24.45, AT DNA 24.3167, 5mC DNA 24.2833
  succinate: 26.0885 µM
NgTet1 [2]; n = 1, time (min) 5HC DNA 27.5333, AT DNA 27.3833, 5mC DNA 27.3667
  succinate: 28.2137 µM
NgTet1 [2]; n = 1, time (min) 5HC DNA 30.6, AT DNA 30.4667, 5mC DNA 30.45
  succinate: 29.4575 µM
NgTet1 [2]; n = 1, time (min) 5HC DNA 33.6833, AT DNA 33.55, 5mC DNA 33.5333
  succinate: 31.2095 µM
NgTet1 [2]; n = 1, time (min) 5HC DNA 36.7667, AT DNA 36.6333, 5mC DNA 36.6167
  succinate: 32.5108 µM
NgTet1 [2]; n = 1, time (min) 5HC DNA 39.85, AT DNA 39.7167, 5mC DNA 39.7
  succinate: 33.8071 µM
NgTet1 [2]; n = 1, time (min) 5HC DNA 42.9333, AT DNA 42.8, 5mC DNA 42.7833
  succinate: 34.7457 µM
NgTet1 [2]; n = 1, time (min) 5HC DNA 46.0167, AT DNA 45.8833, 5mC DNA 45.8667
  succinate: 35.7895 µM
NgTet1 [2]; n = 1, time (min) 5HC DNA 49.0833, AT DNA 48.9667, 5mC DNA 48.95
  succinate: 37.2861 µM
NgTet1 [2]; n = 1, time (min) 5HC DNA 52.1667, AT DNA 52.05, 5mC DNA 52.0333
  succinate: 38.1768 µM
NgTet1 [2]; n = 1, time (min) 5HC DNA 55.25, AT DNA 55.1167, 5mC DNA 55.1167
  succinate: 38.5101 µM
NgTet1 [2]; n = 1, time (min) 5HC DNA 58.3333, AT DNA 58.2, 5mC DNA 58.2
  succinate: 39.4428 µM
NgTet1 [2]; n = 1, time (min) 5HC DNA 61.4, AT DNA 61.2833, 5mC DNA 61.2833
  succinate: 40.1071 µM
NgTet1 [2]; n = 1, time (min) 5HC DNA 64.4833, AT DNA 64.3833, 5mC DNA 64.35
  succinate: 40.323 µM
NgTet1 [2]; n = 2, time (min) 5HC DNA 5.81667, AT DNA 5.61667, 5mC DNA 6.08333
  succinate: 6.9553 µM
NgTet1 [2]; n = 2, time (min) 5HC DNA 8.88333, AT DNA 8.7, 5mC DNA 9.16667
  succinate: 12.0978 µM
NgTet1 [2]; n = 2, time (min) 5HC DNA 12.0333, AT DNA 11.7833, 5mC DNA 12.25
  succinate: 15.5692 µM
NgTet1 [2]; n = 2, time (min) 5HC DNA 15.1167, AT DNA 14.8667, 5mC DNA 15.3167
  succinate: 18.665 µM
NgTet1 [2]; n = 2, time (min) 5HC DNA 18.1833, AT DNA 17.9333, 5mC DNA 18.4
  succinate: 21.5442 µM
NgTet1 [2]; n = 2, time (min) 5HC DNA 21.2667, AT DNA 21.0167, 5mC DNA 21.4833
  succinate: 23.7344 µM
NgTet1 [2]; n = 2, time (min) 5HC DNA 24.35, AT DNA 24.1, 5mC DNA 24.5667
  succinate: 25.3146 µM
NgTet1 [2]; n = 2, time (min) 5HC DNA 27.4333, AT DNA 27.1833, 5mC DNA 27.65
  succinate: 27.7156 µM
NgTet1 [2]; n = 2, time (min) 5HC DNA 30.5167, AT DNA 30.2667, 5mC DNA 30.7333
  succinate: 29.219 µM
NgTet1 [2]; n = 2, time (min) 5HC DNA 33.6, AT DNA 33.35, 5mC DNA 33.8167
  succinate: 30.6366 µM
NgTet1 [2]; n = 2, time (min) 5HC DNA 36.6833, AT DNA 36.4333, 5mC DNA 36.9
  succinate: 31.7592 µM
NgTet1 [2]; n = 2, time (min) 5HC DNA 39.7667, AT DNA 39.5167, 5mC DNA 39.9833
  succinate: 33.6089 µM
NgTet1 [2]; n = 2, time (min) 5HC DNA 42.8333, AT DNA 42.6, 5mC DNA 43.0667
  succinate: 34.5619 µM
NgTet1 [2]; n = 2, time (min) 5HC DNA 45.9167, AT DNA 45.6833, 5mC DNA 46.15
  succinate: 35.6503 µM
NgTet1 [2]; n = 2, time (min) 5HC DNA 49, AT DNA 48.7667, 5mC DNA 49.2333
  succinate: 37.1492 µM
NgTet1 [2]; n = 2, time (min) 5HC DNA 52.0833, AT DNA 51.85, 5mC DNA 52.3167
  succinate: 37.4628 µM
NgTet1 [2]; n = 2, time (min) 5HC DNA 55.1667, AT DNA 54.9333, 5mC DNA 55.4
  succinate: 38.3288 µM
NgTet1 [2]; n = 2, time (min) 5HC DNA 58.25, AT DNA 58.0167, 5mC DNA 58.4833
  succinate: 38.622 µM
NgTet1 [2]; n = 2, time (min) 5HC DNA 61.3333, AT DNA 61.1, 5mC DNA 61.5667
  succinate: 40.1844 µM
NgTet1 [2]; n = 2, time (min) 5HC DNA 64.4167, AT DNA 64.1667, 5mC DNA 64.65
  succinate: 40.2655 µM
NgTet1 [2]; relative to reactions without DNA
  Relative V0 NgTet1: 3.6
NgTet1 [2]; with 20 µM 5HC DNA
  Vmax^app: 6.47 µM/min
  kcat^app: 0.0217 s⁻¹
